Laboratory results from paper PMC11005723, “Development of Complementary Photo‐arginine/lysine to Promote Discovery of Arg/Lys hPTMs Interactomes” (Advanced Science, 2024).
Non-standard residues stand in square brackets, D forms with d. No end group written: not given here. *: point of attachment. Biotin = O=C1N[C@H]2[C@H](CS[C@H]2CCCCC(=O)*)N1; R(dz) = photo-arginine

Test system: HEK293T nuclear lysates
Assay: SILAC‐based pull‐down proteomics H4K5me1/H4K5 (probes 6/5)
Type: binding, human
Details: for C6 log (H4K5me/H4K5): run C6; for B6 log2 (H4K5me/H4K5): run B6

## probe 6: H4K5me peptide probe with photo‐arginine R(dz) and K(biotin) (SG[R(dz)]GK(Me)GGKGLGKGGK(Biotin))
Protein P46109 CRKL
  C6 log (H4K5me/H4K5): 0.1336
Protein P49959 MRE11A
  B6 log2 (H4K5me/H4K5): 0.207
  C6 log (H4K5me/H4K5): 0.09642
Protein P54886 ALDH18A1
  B6 log2 (H4K5me/H4K5): 0.2574
  C6 log (H4K5me/H4K5): 0.1226
Protein P60842 EIF4A1
  B6 log2 (H4K5me/H4K5): 0.1721
  C6 log (H4K5me/H4K5): 0.03464
Protein P62140 PPP1CB
  B6 log2 (H4K5me/H4K5): 0.1941
  C6 log (H4K5me/H4K5): 0.1375
Protein P78527 PRKDC
  B6 log2 (H4K5me/H4K5): 0.1659
  C6 log (H4K5me/H4K5): 0.03578
Protein P82979 SARNP
  B6 log2 (H4K5me/H4K5): 0.2593
  C6 log (H4K5me/H4K5): 0.2358
Protein P83916 CBX1
  B6 log2 (H4K5me/H4K5): 1.115
  C6 log (H4K5me/H4K5): 1.115
Protein Q5JRI1 FUSIP1
  B6 log2 (H4K5me/H4K5): 0.2091
  C6 log (H4K5me/H4K5): 0.05687
Protein Q5QPR4 CDC2L2
  B6 log2 (H4K5me/H4K5): 0.1546
  C6 log (H4K5me/H4K5): 0.218
Protein Q5SY16 NOL9
  B6 log2 (H4K5me/H4K5): 0.2457
  C6 log (H4K5me/H4K5): 0.6439
Protein Q5T760 SFRS11
  B6 log2 (H4K5me/H4K5): 0.2194
  C6 log (H4K5me/H4K5): 0.159
Protein Q5UIP0 RIF1
  B6 log2 (H4K5me/H4K5): 0.2471
  C6 log (H4K5me/H4K5): 0.213
Protein Q6PD62 CTR9
  B6 log2 (H4K5me/H4K5): 0.2151
  C6 log (H4K5me/H4K5): 0.2109
Protein Q6PJT7 ZC3H14
  B6 log2 (H4K5me/H4K5): 0.2381
  C6 log (H4K5me/H4K5): 0.2485
Protein Q7Z6E9 RBBP6
  B6 log2 (H4K5me/H4K5): 0.1468
  C6 log (H4K5me/H4K5): 0.358
Protein Q8IX15 HOMEZ
  B6 log2 (H4K5me/H4K5): 0.2323
  C6 log (H4K5me/H4K5): 0.1198
Protein Q8N3X1 FNBP4
  B6 log2 (H4K5me/H4K5): 0.1827
  C6 log (H4K5me/H4K5): 0.2005
Protein Q8N5C6 SRBD1
  B6 log2 (H4K5me/H4K5): 0.1982
  C6 log (H4K5me/H4K5): 0.09557
Protein Q8N163 KIAA1967
  B6 log2 (H4K5me/H4K5): 0.1537
  C6 log (H4K5me/H4K5): 0.2348
Protein Q8TDD1 DDX54
  B6 log2 (H4K5me/H4K5): 0.1648
  C6 log (H4K5me/H4K5): 0.2394
Protein Q9BVJ6 UTP14A
  B6 log2 (H4K5me/H4K5): 0.973
  C6 log (H4K5me/H4K5): 0.973
Protein Q9H2P0 ADNP
  B6 log2 (H4K5me/H4K5): 0.2412
  C6 log (H4K5me/H4K5): -0.7035
Protein Q9H7L9 SUDS3
  B6 log2 (H4K5me/H4K5): 1.175
  C6 log (H4K5me/H4K5): 1.175
Protein Q9H9A6 LRRC40
  B6 log2 (H4K5me/H4K5): 0.1942
  C6 log (H4K5me/H4K5): 0.05299
Protein Q9UBD5 ORC3
  B6 log2 (H4K5me/H4K5): 0.1586
  C6 log (H4K5me/H4K5): -0.1103
Protein Q9UBW7 ZMYM2
  B6 log2 (H4K5me/H4K5): 0.2577
  C6 log (H4K5me/H4K5): 0.2945
Protein Q9UHB6 LIMA1
  B6 log2 (H4K5me/H4K5): 0.1593
  C6 log (H4K5me/H4K5): 0.1812
Protein Q9UQ80 PA2G4
  B6 log2 (H4K5me/H4K5): 0.1452
  C6 log (H4K5me/H4K5): -0.04803
Protein Q9UQR0 SCML2
  B6 log2 (H4K5me/H4K5): 0.7435
  C6 log (H4K5me/H4K5): 0.7435
Protein Q9Y2L1 DIS3
  B6 log2 (H4K5me/H4K5): 0.1845
  C6 log (H4K5me/H4K5): 0.1312
Protein Q9Y6C9 MTCH2
  B6 log2 (H4K5me/H4K5): 0.1565
  C6 log (H4K5me/H4K5): -0.06142
Protein Q86VP6 CAND1
  B6 log2 (H4K5me/H4K5): 0.1606
  C6 log (H4K5me/H4K5): 0.2263
Protein Q00839 HNRNPU
  B6 log2 (H4K5me/H4K5): 0.2071
  C6 log (H4K5me/H4K5): 0.1339
Protein Q01082 SPTBN1
  B6 log2 (H4K5me/H4K5): 0.2576
  C6 log (H4K5me/H4K5): 0.166
Protein Q06265 EXOSC9
  B6 log2 (H4K5me/H4K5): 0.1802
  C6 log (H4K5me/H4K5): 0.08146
Protein Q06330 RBPJ
  B6 log2 (H4K5me/H4K5): 0.1919
  C6 log (H4K5me/H4K5): -0.04363
Protein Q09161 NCBP1
  B6 log2 (H4K5me/H4K5): 0.2194
  C6 log (H4K5me/H4K5): 0.2078
Protein Q12874 SF3A3
  B6 log2 (H4K5me/H4K5): 0.1922
  C6 log (H4K5me/H4K5): 0.1113
Protein Q12888 TP53BP1
  B6 log2 (H4K5me/H4K5): 0.2132
  C6 log (H4K5me/H4K5): 0.1756
Protein Q13185 CBX3
  B6 log2 (H4K5me/H4K5): 1.132
  C6 log (H4K5me/H4K5): 1.132
Protein Q13363 CTBP1
  B6 log2 (H4K5me/H4K5): 0.1923
  C6 log (H4K5me/H4K5): -0.1428
Protein Q13416 ORC2
  B6 log2 (H4K5me/H4K5): 0.2451
  C6 log (H4K5me/H4K5): 0.438
Protein Q14137 BOP1
  B6 log2 (H4K5me/H4K5): 0.2019
  C6 log (H4K5me/H4K5): -0.001199
Protein Q14498 RBM39
  B6 log2 (H4K5me/H4K5): 0.2408
  C6 log (H4K5me/H4K5): 0.2735
Protein Q14683 SMC1A
  B6 log2 (H4K5me/H4K5): 0.1556
  C6 log (H4K5me/H4K5): 0.1782
Protein Q15459 SF3A1
  B6 log2 (H4K5me/H4K5): 0.2515
  C6 log (H4K5me/H4K5): 0.3427
Protein Q16555 DPYSL2
  B6 log2 (H4K5me/H4K5): 0.7641
  C6 log (H4K5me/H4K5): 0.7641
Protein Q16658 FSCN1
  B6 log2 (H4K5me/H4K5): 0.2138
  C6 log (H4K5me/H4K5): 0.727
Protein Q92688 ANP32B
  B6 log2 (H4K5me/H4K5): 0.1648
  C6 log (H4K5me/H4K5): 0.135
Protein Q99613 EIF3C
  B6 log2 (H4K5me/H4K5): 0.2459
  C6 log (H4K5me/H4K5): 0.04711
